# Paper PMC6028453, “BrlR from Pseudomonas aeruginosa is a receptor for both cyclic di-GMP and pyocyanin” (Nature Communications, 2018)
# Assays:
# [1] = tested on: brlR promoter activity (C2E mut1); experiment: β-galactosidase assay, C2E mut1; assay type: cell-based, Pseudomonas aeruginosa
# Description: We also performed β-galactosidase activity assays using a PbrlR-brlR-lacZ reporter construct to investigate the transcriptional function of BrlR mutants in vivo. […] To confirm the effect of c-di-GMP in P. aeruginosa, we carried out real-time quantitative PCR analyses. Following a previous report, we introduced the diguanylate cyclase PA4843 into a WT P. aeruginosa strain carrying either pHERD20T-empty or pHERD20T-PA4843. The transcription level of brlR was analyzed using the brlR 5 F and brlR 3 R primers (Supplementary Table 1). The transcriptional level of brlR in pHERD20T-PA4843 strain is 4.5 ± 1.3-fold higher than that in the pHERD20T-empty strain (Fig. 4h).
# β-galactosidase activity was assayed with P. aeruginosa PA01 ΔbrlR strain carrying plasmid pME6522-borne transcriptional lacZ fusions. P. aeruginosa carrying the empty vector was used as the […]. The reporter plasmids are derivatives of the pME6522 plasmid in which multiple cloning sites were inserted before the LacZ with the promoter and coding regions of brlR with diverse mutations. These reporter plasmids were transformed into the reporter strain. Overnight cultures were diluted 20-fold with LB medium supplemented with appropriate antibiotics. […]
# BrlR = target: T1, BrlR (Pseudomonas aeruginosa, UniProt Q9HUT5); experiment: Surface plasmon resonance (SPR) analysis; assay type: binding; conditions: SPR, first submitted version of the manuscript (quoted by reviewer); authors later call it a very weak artificial affinity
# T1 construct: His6-SUMO (N, cleaved yes); made in house; host or cells: E. coli BL21 DE3
# Description: The binding affinity of diverse toxic compounds for BrlR were investigated by SPR using a BIAcore-T200 apparatus (GE Healthcare). The ligand, BrlR (20 μM in 10 mM sodium acetate, pH 4.5), was immobilized on an activated CM5 sensor chip by amine coupling (BIAcore) with 4400 response units (RU), and the unreacted sites were blocked with 1.0 M ethanolamine–HCl (pH 8.5). Steady-state binding analysis was performed with injections of different molecules at different concentrations over the immobilized BrlR surface at a flow rate of 20 μL min^−1 at 25 °C. Association was measured for 180 s, followed by 120 s of dissociation in running buffer (20 mM Hepes pH 7.5, 150 mM NaCl). The sensorgrams for specific interactions were obtained by subtracting the reference unimmobilized flow cell response from that of the sample. Since BrlR only has one binding site for pyocyanin or other toxic compounds (Fig. 5a–f), the kinetic analysis of the sensorgrams from analyte interaction with the immobilized BrlR was performed by fitting the binding curves to a 1:1 binding model. To determine the steady state KD values, equilibrium responses were plotted against analyte concentrations, and the resulting curves were fitted to the steady state model in the BIAevaluation software package, version 3.0 (GE Healthcare).
# BrlR mutant Y270A = target: T2, BrlR mutant Y270A (Pseudomonas aeruginosa, UniProt Q9HUT5, Y270A); experiment: FP binding assay, BrlR Y270A
# T2 construct: His6-SUMO (N, cleaved yes); made in house; host or cells: E. coli BL21 DE3
# Description: F-c-di-GMP and F-c-di-AMP both contain a fluorophore at one of the 2′-ribose hydroxyls of c-di-GMP and c-di-AMP, respectively (Fig. 2f). To measure the binding of c-di-GMP and c-di-AMP to BrlR variants, 1 nM F-c-di-GMP or F-c-di-AMP was incubated with increasing amounts of indicated BrlR WT, BrlR mutation, or BrlR-C in reaction buffer (25 mM HEPES, 100 mM NaCl, pH 7.5) at 25 °C for 20 min. 1 nM fluorescein was incubated with BrlR WT in the same reaction buffer at 25 °C. FP measurements were conducted on a Synergy 4 Microplate Reader (BioTek) at 25 °C. All experiments were performed in triplicate. The curves were fitted to deduce binding affinities by GraphPad Prism 5.
# BrlR–c-di-GMPs interactions in two separate c-di-GMP binding sites
# In the first binding site, c-di-GMP is half accommodated by the antiparallel β-sheet and two residues (M1 and D35). In detail, the backbone amide protons of the first M1 residue form a hydrogen bond (H-bond) with the phosphate oxygen atom of c-di-GMP, and the side chain of R31 forms two H-bonds with the Gua1 base. The residue D35 also forms an H-bond with the Gua1 base. The aromatic ring of Y40 interacts with the Gua1 base through a hydrophobic π-π interaction. In addition, the hydroxyl group of the Y270 side chain from another subunit interacts with the phosphate 2 of c-di-GMP via an H-bond (Fig. 2d). […]
# T2 sequence (Q9HUT5 whole entry Y270A): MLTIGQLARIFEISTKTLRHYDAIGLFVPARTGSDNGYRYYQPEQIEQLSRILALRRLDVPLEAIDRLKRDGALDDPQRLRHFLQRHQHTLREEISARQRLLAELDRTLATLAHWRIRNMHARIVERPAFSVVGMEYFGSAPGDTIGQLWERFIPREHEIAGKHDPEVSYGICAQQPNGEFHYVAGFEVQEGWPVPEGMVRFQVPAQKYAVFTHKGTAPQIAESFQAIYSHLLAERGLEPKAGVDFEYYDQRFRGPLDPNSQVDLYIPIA
# T1 sequence (Q9HUT5 whole entry): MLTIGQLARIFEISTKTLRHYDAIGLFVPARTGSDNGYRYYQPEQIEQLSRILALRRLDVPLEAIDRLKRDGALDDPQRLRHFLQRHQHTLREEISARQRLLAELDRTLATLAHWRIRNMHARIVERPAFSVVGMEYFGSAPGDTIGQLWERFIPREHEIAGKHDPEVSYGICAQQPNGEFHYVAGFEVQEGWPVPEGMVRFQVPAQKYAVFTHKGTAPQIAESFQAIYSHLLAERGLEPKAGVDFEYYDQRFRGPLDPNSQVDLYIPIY
compound,measurement,setting,value
"Nc1nc2c(ncn2[C@@H]2O[C@@H]3COP(=O)(O)O[C@H]4[C@@H](O)[C@H](n5cnc6c(=O)[nH]c(N)nc65)O[C@@H]4COP(=O)(O)O[C@H]3[C@H]2O)c(=O)[nH]1 [c-di-GMP, cyclic diguanylate monophosphate]",increase at high vs low c-di-GMP concentration (β-galactosidase activity),[1],2.0 fold
same,Kd,BrlR,2690 µM
same,Kd,BrlR mutant Y270A,40.8 ± 3.8 µM
